Measured values from PMC7999182, “Interaction of Remdesivir with Clinically Relevant Hepatic Drug Uptake Transporters” (Pharmaceutics, 2021).

Tests used:
[1] = target: T1, OATP2B1 (Homo sapiens, UniProt O94956); assay: Remdesivir uptake into HEK cells stably expressing OATP2B1 vs vector control; format: in vitro ADME; conditions: 5 µM remdesivir, 10 min, transporter-expressing vs control HEK cells
T1 construct: expressed in transfected cells
T1 sequence (O94956 1-709): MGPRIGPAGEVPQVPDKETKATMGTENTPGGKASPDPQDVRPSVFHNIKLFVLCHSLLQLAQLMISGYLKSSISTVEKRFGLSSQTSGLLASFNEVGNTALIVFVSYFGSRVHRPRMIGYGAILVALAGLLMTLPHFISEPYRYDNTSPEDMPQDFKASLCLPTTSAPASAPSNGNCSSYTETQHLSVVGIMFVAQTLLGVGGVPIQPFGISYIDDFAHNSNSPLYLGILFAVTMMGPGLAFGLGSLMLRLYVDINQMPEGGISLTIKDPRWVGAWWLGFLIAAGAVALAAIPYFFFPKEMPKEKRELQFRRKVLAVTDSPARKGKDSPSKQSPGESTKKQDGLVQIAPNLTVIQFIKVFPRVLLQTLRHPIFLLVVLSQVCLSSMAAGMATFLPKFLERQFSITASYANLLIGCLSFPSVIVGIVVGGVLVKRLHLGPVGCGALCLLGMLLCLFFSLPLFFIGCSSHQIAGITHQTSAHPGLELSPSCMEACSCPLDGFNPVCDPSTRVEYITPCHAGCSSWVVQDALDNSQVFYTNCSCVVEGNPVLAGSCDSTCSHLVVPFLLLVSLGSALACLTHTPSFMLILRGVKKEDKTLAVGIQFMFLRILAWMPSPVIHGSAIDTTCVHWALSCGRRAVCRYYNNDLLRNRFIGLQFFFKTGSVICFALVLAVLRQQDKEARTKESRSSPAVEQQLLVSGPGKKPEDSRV
Description: (§1) Generation, cultivation and characterization of human embryonic kidney (HEK) cells stably expressing OATP1B1 refseq (=OATP1B1*1a), OATP1B1*1b, OATP1B1*5 and OATP1B1*15 [18], OATP1B3 [19], OATP2B1 [13] and OCT1 [20] have been described previously. OATP1B1 cells were cultivated in minimal essential medium (Life Technologies, Paisley, UK) and OATP1B3, OATP2B1 and OCT1 cells were cultivated in Dulbecco’s modified Eagle medium (Sigma, Darmstadt, Germany). Cultivation media were supplemented with 10% fetal calf serum, 100 U/mL penicillin and 100 µg/mL streptomycin. Cells were grown at 37 °C and 5% CO2. Functionality of the cells was confirmed by measuring uptake of prototypic substrates (see Section 2.3 and supplementary material).
(§2) Uptake assays were conducted at 37 °C according to previously described methods. For this, cells were seeded in 24-well plates (320,000 cells/well) and cultured for 2 days. Cells were then incubated for a further 24 h in culture medium with 5 mM butyrate (OATP1B3, OATP2B1, OCT1) or 10 mM butyrate (OATP1B1) to increase protein levels of recombinant transporters. […]
(§3) Remdesivir was determined by UHPLC-MS-MS analysis on an Agilent 1290 infinity UHPLC system coupled to an Agilent 6495B triple quadrupole mass spectrometer (Agilent, Waldbronn, Germany) similar to a recently published method. […]

[2] = target: T2, OATP1B1*1b (Homo sapiens, UniProt Q9Y6L6, N130D); assay: Remdesivir uptake into HEK cells stably expressing OATP1B1*1b vs vector control; format: in vitro ADME; conditions: 10 min
T2 construct: expressed in transfected cells
T2 sequence (Q9Y6L6 1-691 N130D): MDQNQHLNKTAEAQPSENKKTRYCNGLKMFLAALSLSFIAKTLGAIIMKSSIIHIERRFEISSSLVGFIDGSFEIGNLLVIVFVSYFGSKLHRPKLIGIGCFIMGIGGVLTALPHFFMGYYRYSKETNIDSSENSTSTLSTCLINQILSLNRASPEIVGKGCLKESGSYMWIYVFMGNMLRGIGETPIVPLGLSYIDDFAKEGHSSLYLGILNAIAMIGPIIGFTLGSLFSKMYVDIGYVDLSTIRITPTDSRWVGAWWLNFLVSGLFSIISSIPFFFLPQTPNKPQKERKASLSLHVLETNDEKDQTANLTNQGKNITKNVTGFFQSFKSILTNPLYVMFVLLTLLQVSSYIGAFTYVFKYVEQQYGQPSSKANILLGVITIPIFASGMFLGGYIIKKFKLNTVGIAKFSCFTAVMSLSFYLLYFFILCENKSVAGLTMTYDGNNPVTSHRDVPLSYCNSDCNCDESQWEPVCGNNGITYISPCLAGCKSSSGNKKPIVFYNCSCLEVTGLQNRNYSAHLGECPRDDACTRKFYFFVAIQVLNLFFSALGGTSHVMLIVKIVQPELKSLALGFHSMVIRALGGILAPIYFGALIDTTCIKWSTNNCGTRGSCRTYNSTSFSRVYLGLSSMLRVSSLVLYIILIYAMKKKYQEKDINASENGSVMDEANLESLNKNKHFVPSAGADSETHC
Description: as §1, §2, §3

CCC(CC)COC(=O)[C@H](C)N[P@](=O)(OC[C@H]1O[C@@](C#N)(c2ccc3c(N)ncnn23)[C@H](O)[C@@H]1O)Oc1ccccc1 [Remdesivir]
Remdesivir uptake ratio [1]: 1.4
Accumulation vs vector-transfected control cells ([2]; 5 µM remdesivir): moderately higher
Accumulation vs vector-transfected control cells ([2]; 50 µM remdesivir): moderately higher
